Key:
[1] = system: Various cells; test: Cytotoxicity test (WST-1 cell viability); type: cell-based; details: 0.01-100 μM, 24 hours
Procedure: intravenous; IP, intraperitoneal; Tmax, Time to maximum plasm concentration; Cmax, Maximum plasma concentration after intraperitoneal injection; AUC, Area under the curve; CL, clearance; Vss, Volume of distribution at steady state; T1/2, Elimination half-life; F, […]
Table R2. Cytotoxicity test for KY19382 […]
viability was measured using WST-1. The IC50 value was determined from the dose-response […]
This manuscript addresses the role of CXXC5, a negative regulator of Wnt/beta-Catenin signaling, on growth plate senescence and associated longitudinal bone growth.
Authors used a peptide PTD-DBMP, and a small molecule KY19382, which interferes with GSK-3b activity and CXXC5-DVL interaction. Such interference activates Wnt/beta-catenin signaling that delays growth plate senescence, resulting in longitudinal bone growth in mice; thereby proposing CXXC5 as a potential target to enhance longitudinal growth of children at the risk of height retardation. This is a well
(1 picture or pasted object on this page, not shown here)

[2] = system: growth plates of proximal tibiae; test: Growth plate senescence and longitudinal bone growth in KY19382-treated mice; type: in vivo, mouse
Procedure: Figure 5. The effects of KY19382 on growth plate senescence and longitudinal bone growth. (A-I) KY19382 (0.1 mg/kg) was administered to 7-wk-old mice (A-E) or 3-wk-old mice (F-I) by daily intraperitoneal injection for 2 wk (n = 7). H&E staining, IHC analyses with the indicated antibodies, and TRAP staining in the growth plates of proximal tibiae treated with KY19382 (A, F). Quantitative analyses of the cell number per column (mean ± SEM, n = 7; t test, ***P < 0.0005) (B) or the height (mean ± SEM, n = 7; t test, ***P < 0.0005) (G) of resting zone and proliferative zone (RZ&PZ) and hypertrophic zone (HZ) in the growth plates of proximal tibiae. Quantitative analyses of BrdU-positive cells in the growth plates (mean ± SEM, n = 5; t test, ***P < 0.0005) (C, H). Quantitative analyses of the number of TRAP-positive foci along 250 μm of the cartilage/bone interface (mean ± SEM, n = 3; t test, *P < 0.05) (D, I). Immunoblot analyses with the indicated antibodies in the growth plate of proximal tibiae of mice treated with KY19382 (E). Scale bars, 50 μm. (J) 3-wk-old mice were intraperitoneally injected with KY19382 (0.1 mg/kg) daily for 10 wk. Representative radiographs are shown (left), and tibial length was measured (right) (mean ± SEM, n = 7-15; t test, ***P < 0.0005). The area within the dashed lines indicates the growth plate zone. n.s., no significance; TRAP, tartrate-resistant acid phosphatase. Cxxc5^-/- mice were established in a previous study ([Kim et al, 2015]). To manipulate growth plate senescence by estrogen, 3-wk-old Cxxc5^+/+ and Cxxc5^-/- male mice received weekly i.m. injections of either 70 μg/kg estradiol (E2) cypionate (Sigma-Aldrich) or vehicle (cottonseed oil) for 3 wk. To investigate the effects of KY19382 treatment on longitudinal bone growth, C57BL/6 male mice were purchased from KOATECH (Gyeonggido, Korea). KY19382 (0.1 mg/kg) was administered daily by i.p. injection to 3- and 7-wk-old mice for 2 wk or to 3-wk-old mice for 10 wk. For BrdU labeling experiments, the mice were i.p. injected with 50 mg/kg BrdU (Sigma-Aldrich) before 24 h to euthanize. All animal procedures were approved by the Institutional Animal Care and Use Committee of Yonsei University (Korea) and conducted based on the guidelines of the Korean Food and Drug Administration. Plain radiographs were taken using an X-ray apparatus (KODAK DXS 4000 Pro SYSTEM; Carestream Health). The tissues were fixed in 4% PFA, decalcified in 10% EDTA (pH 7.4), dehydrated, embedded in paraffin, and sectioned to 4-μm thickness (Leica Microsystems). The tissues sections were rehydrated and used for further analyses, including H&E, TRAP, and IHC staining. To perform IHC staining, the sections were incubated with citrate buffer (pH 6.0) at 80°C for 30 min, with 0.05% trypsin working solution (pH 7.8) for 30 min at 37°C, or with 0.5% pepsin (Sigma-Aldrich) for 15 min at 37°C. Then, the sections were blocked with 5% normal goat serum (Vector Laboratories) and 0.3% Triton X-100 in PBS for 1 h at room temperature. For 3,3'-diaminobensidine (DAB) staining, the sections were incubated with 0.345% H2O2 for 15 min. Before incubating the sections with mouse primary antibody, mouse IgG was blocked using a M.O.M kit (Vector Laboratories). The sections were incubated at 4°C overnight with the following primary antibodies: anti-β-catenin (#610154; 1:50; BD Bioscience), anti-CXXC5 (1:200; lab-made) anti-BrdU ([…]; 1:200; DAKO), anti-COL2A1 (PA5-11462; 1:100; Thermo Fisher Scientific), anti-Ki67 (ab15580; 1:200; Abcam), and anti-RUNX2 (ab23981; 1:200; Abcam). Then, the sections were incubated at room temperature for 1 h with biotinylated anti-mouse (BA-9200; 1:200; Vector Laboratories) or biotinylated anti-rabbit (BA-1000; 1:200; Vector Laboratories) secondary antibodies. The sections were then incubated in avidin-biotin complex solutions (Vector Laboratories), stained with a DAB kit (Vector Laboratories) for 3-30 min, and counterstained with methyl green (Sigma-Aldrich). […]

[3] = target: T1, CXXC5–DVL interaction (Homo sapiens, UniProt O14640); test: In vitro CXXC5–DVL binding assay (FITC-tagged PTD-DBMP on DVL PDZ domain); details: dose–response curve, n = 3
T1 sequence (O14640 251-340 limits assumed): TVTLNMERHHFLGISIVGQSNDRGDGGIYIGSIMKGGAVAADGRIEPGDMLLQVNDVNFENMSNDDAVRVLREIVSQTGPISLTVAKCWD
Procedure: After the addition of 10 μM FITC-tagged PTD-DBMP to each well, each compound in the chemical library or control (DMSO) was treated to the well at a final concentration of 30 μM. The fluorescence intensity was measured using a Fluorstar Optima microplate reader (BGM Lab Technologies, Ortenberg, Germany). The binding values were calculated as a percent ratio of the fluorescent intensity normalized to the DMSO-treated control.

[4] = 3-wk-old mice, 0.1 mg/kg i.p. daily for 2 wk
[5] = 7-wk-old mice, 0.1 mg/kg i.p. daily for 2 wk

## CON=C1C(=C2C(=O)Nc3cc(Cl)c(Cl)cc32)Nc2ccccc21 [KY19382, 5,6-dichloroindirubin-3′-methoxime]
[1]
  cytotoxicity in variety of cell types: does not induce cytotoxicity
[2]; [4]
  BrdU-positive cells in growth plate: elevated
  height of each growth plate zone: elevated
[2]; 3-wk-old mice, 0.1 mg/kg i.p. daily for 2 wk, vs vehicle
  number of TRAP-positive foci in the growth plate/trabecular interface: not different
[2]; 3-wk-old mice, 0.1 mg/kg i.p. daily for 10 wk, vs vehicle
  length of tibiae: significantly increased
[2]; [5]
  nuclear β-catenin in growth plate chondrocytes: dramatically increased
  numbers of proliferative and hypertrophic chondrocytes per column: increased numbers
  total growth plate height (COL2A1 immunostaining): significantly increased
[2]; 7-wk-old mice, 0.1 mg/kg i.p. daily for 2 wk, vs vehicle
  TRAP-positive foci at cartilage/bone interface: elevated
[3]
  IC50: 19 nM

Source: paper PMC6458850, “CXXC5 mediates growth plate senescence and is a target for enhancement of longitudinal bone growth” (Life Science Alliance, 2019)
